Results published in patent US10919841B2, “Monoamine reuptake inhibitors” (Research Triangle Institute, priority 2009, dated 2021).

These compounds were tested against T1, (h)NET (Homo sapiens, UniProt P23975) (assay: block of [3H]norepinephrine reuptake in HEK-(h)NET cells). Conditions: read-out: Uptake, IC50 [3H]NE; mean ± standard error of three independent experiments.
T1 sequence (P23975 whole entry): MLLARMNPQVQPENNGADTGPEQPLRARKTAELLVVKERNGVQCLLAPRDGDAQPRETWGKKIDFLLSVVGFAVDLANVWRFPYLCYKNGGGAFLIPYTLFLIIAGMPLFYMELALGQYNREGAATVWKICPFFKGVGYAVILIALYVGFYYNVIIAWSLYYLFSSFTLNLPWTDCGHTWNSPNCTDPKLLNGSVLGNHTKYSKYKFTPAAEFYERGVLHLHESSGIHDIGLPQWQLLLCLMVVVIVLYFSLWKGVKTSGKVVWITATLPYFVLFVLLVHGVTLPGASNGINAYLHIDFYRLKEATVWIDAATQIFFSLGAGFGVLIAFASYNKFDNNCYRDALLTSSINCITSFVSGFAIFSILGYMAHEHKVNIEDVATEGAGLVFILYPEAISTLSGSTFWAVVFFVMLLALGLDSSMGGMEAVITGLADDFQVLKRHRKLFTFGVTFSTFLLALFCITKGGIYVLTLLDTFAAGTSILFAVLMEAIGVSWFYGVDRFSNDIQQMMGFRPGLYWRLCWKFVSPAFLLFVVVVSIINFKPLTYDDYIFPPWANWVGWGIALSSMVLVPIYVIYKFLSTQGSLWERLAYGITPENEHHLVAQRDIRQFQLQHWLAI

Structure (SMILES) | IC50
CC(C(=O)c1cccc(Cl)c1)N1CCCCC1 (centres unmarked) [Compound 2ff, 2-Piperidino-3′-chloropropiophenone] | 4800 nM
Cc1ccc(C(=O)C(C)NC(C)(C)C)cc1Cl (centres unmarked) [Compound 2k, 2-(N-tert-Butylamino)-3′-chloro-4′-methylpropiophenone] | 900 nM
CC(NC(C)(C)C)C(=O)c1ccc(Cl)c(Cl)c1 (centres unmarked) [Compound 2j, 2-(N-tert-Butylamino)-3′,4′-dichloropropiophenone] | 2100 nM
CC(C)CC(NC(C)(C)C)C(=O)c1cccc(Cl)c1 (centres unmarked) [Compound 2t, 2-(N-tert-Butylamino)-3′-chlorophenyl-4-methylpentanophenone] | 360 nM

Each compound was assayed against T2, (h)DAT (Homo sapiens, UniProt Q01959) (assay: block of [3H]dopamine reuptake in HEK-(h)DAT cells). Conditions: [3H]DA; read-out: IC50 for DA uptake inhibition.
T2 construct: expressed in transfected cells
T2 sequence (Q01959 whole entry): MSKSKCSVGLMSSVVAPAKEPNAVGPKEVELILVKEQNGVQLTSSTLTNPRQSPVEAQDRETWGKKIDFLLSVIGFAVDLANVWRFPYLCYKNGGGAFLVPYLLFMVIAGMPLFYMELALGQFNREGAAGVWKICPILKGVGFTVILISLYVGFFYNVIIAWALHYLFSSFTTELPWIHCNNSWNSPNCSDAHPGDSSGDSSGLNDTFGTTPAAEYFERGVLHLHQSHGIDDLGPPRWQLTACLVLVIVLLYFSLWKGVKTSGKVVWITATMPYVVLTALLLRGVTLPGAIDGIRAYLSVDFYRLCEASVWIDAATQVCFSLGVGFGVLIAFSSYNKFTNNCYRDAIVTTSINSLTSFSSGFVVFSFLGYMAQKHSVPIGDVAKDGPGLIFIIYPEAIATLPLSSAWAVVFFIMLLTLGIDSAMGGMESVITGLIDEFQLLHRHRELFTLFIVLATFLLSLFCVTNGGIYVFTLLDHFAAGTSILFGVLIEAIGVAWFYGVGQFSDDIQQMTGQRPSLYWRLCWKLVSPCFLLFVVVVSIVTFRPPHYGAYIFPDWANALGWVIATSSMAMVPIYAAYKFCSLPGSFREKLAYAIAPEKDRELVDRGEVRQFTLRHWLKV
Format: cell-based

Structure (SMILES) | IC50
CC(C(=O)c1cccc(Cl)c1)N1CCCCC1 (centres unmarked) [Compound 2ff, 2-Piperidino-3′-chloropropiophenone] | 1030 nM
Cc1ccc(C(=O)C(C)NC(C)(C)C)cc1Cl (centres unmarked) [Compound 2k, 2-(N-tert-Butylamino)-3′-chloro-4′-methylpropiophenone] | 650 nM
CC(NC(C)(C)C)C(=O)c1ccc(Cl)c(Cl)c1 (centres unmarked) [Compound 2j, 2-(N-tert-Butylamino)-3′,4′-dichloropropiophenone] | 271 nM
CC(C)CC(NC(C)(C)C)C(=O)c1cccc(Cl)c1 (centres unmarked) [Compound 2t, 2-(N-tert-Butylamino)-3′-chlorophenyl-4-methylpentanophenone] | 440 nM

Same assay, conditions: mean ± standard error of three independent experiments; read-out: Uptake, IC50 [3H]DA

Structure (SMILES) | IC50
CC(NC(C)(C)C)C(=O)c1ccc(Br)cc1 (centres unmarked) [Compound 2g, 2-(N-tert-Butylamino)-4′-bromopropiophenone] | 1300 nM

Same assay, conditions: relative to bupropion

Structure (SMILES) | times more potent than bupropion as DA uptake inhibitor
Cc1ccc(C(=O)C(C)NC(C)(C)C)cc1Cl (centres unmarked) [Compound 2k, 2-(N-tert-Butylamino)-3′-chloro-4′-methylpropiophenone] | 2 times
CC(NC(C)(C)C)C(=O)c1ccc(Cl)c(Cl)c1 (centres unmarked) [Compound 2j, 2-(N-tert-Butylamino)-3′,4′-dichloropropiophenone] | 3.5 times

The compounds below were run against T1, (h)NET (assay: competition binding with [125I]RTI-55 at (h)NET stably expressed in HEK293 cells). Conditions: read-out: Binding, Ki NET; mean ± standard error of three independent experiments.

Structure (SMILES) | Ki
CC(C(=O)c1cccc(Cl)c1)N1CCCCC1 (centres unmarked) [Compound 2ff, 2-Piperidino-3′-chloropropiophenone] | 4.76 µM
Cc1ccc(C(=O)C(C)NC(C)(C)C)cc1Cl (centres unmarked) [Compound 2k, 2-(N-tert-Butylamino)-3′-chloro-4′-methylpropiophenone] | 5.1 µM
CC(NC(C)(C)C)C(=O)c1ccc(Cl)c(Cl)c1 (centres unmarked) [Compound 2j, 2-(N-tert-Butylamino)-3′,4′-dichloropropiophenone] | 5.4 µM
CC(C)CC(NC(C)(C)C)C(=O)c1cccc(Cl)c1 (centres unmarked) [Compound 2t, 2-(N-tert-Butylamino)-3′-chlorophenyl-4-methylpentanophenone] | 2.3 µM

The compounds below were run against T2, (h)DAT (assay: competition binding with [125I]RTI-55 at (h)DAT stably expressed in HEK293 cells). Conditions: mean ± standard error of three independent experiments.

Structure (SMILES) | Ki
CC(NC(C)(C)C)C(=O)c1ccc(Br)cc1 (centres unmarked) [Compound 2g, 2-(N-tert-Butylamino)-4′-bromopropiophenone] | 1920 nM
CC(C(=O)c1cccc(Cl)c1)N1CCCCC1 (centres unmarked) [Compound 2ff, 2-Piperidino-3′-chloropropiophenone] | 1150 nM
Cc1ccc(C(=O)C(C)NC(C)(C)C)cc1Cl (centres unmarked) [Compound 2k, 2-(N-tert-Butylamino)-3′-chloro-4′-methylpropiophenone] | 1150 nM
CC(NC(C)(C)C)C(=O)c1ccc(Cl)c(Cl)c1 (centres unmarked) [Compound 2j, 2-(N-tert-Butylamino)-3′,4′-dichloropropiophenone] | 472 nM
CC(C)CC(NC(C)(C)C)C(=O)c1cccc(Cl)c1 (centres unmarked) [Compound 2t, 2-(N-tert-Butylamino)-3′-chlorophenyl-4-methylpentanophenone] | 140 nM

What follows are compounds tested on rats (assay: cocaine discrimination (2-lever operant), i.p. administration). Conditions: Rattus norvegicus, ip, read-out: % cocaine lever responding.

Structure (SMILES) | responders at 10 mg/kg | responders at 25 mg/kg | responders at 50 mg/kg | responders at 100 mg/kg
CC(NC(C)(C)C)C(=O)c1ccc(Br)cc1 (centres unmarked) [Compound 2g, 2-(N-tert-Butylamino)-4′-bromopropiophenone] | 1% | 17% | 17% | 0%
CC(C(=O)c1cccc(Cl)c1)N1CCCCC1 (centres unmarked) [Compound 2ff, 2-Piperidino-3′-chloropropiophenone] | 6% | 17% | 33% | 34%
CC(NC(C)(C)C)C(=O)c1ccc(Cl)c(Cl)c1 (centres unmarked) [Compound 2j, 2-(N-tert-Butylamino)-3′,4′-dichloropropiophenone] | 0% | 17% | 34% | 2%

Same assay, conditions: i.p.

Structure (SMILES) | generalization to the cocaine cue, in words
CC(NC(C)(C)C)C(=O)c1ccc(Cl)c(Cl)c1 (centres unmarked) [Compound 2j, 2-(N-tert-Butylamino)-3′,4′-dichloropropiophenone] | did not even show partial generalization

Each compound was assayed on mice (assay: locomotor activity, 8-h time course protocol). Conditions: 1-h and 8-h tests compared.
Format: in vivo

Structure (SMILES) | locomotor stimulant activity across the 1-h and 8-h protocols, in words
CC(NC(C)(C)C)C(=O)c1ccc(Br)cc1 (centres unmarked) [Compound 2g, 2-(N-tert-Butylamino)-4′-bromopropiophenone] | inactive in the 1-h test but showed weak stimulant activity in the 8-h protocol
CC(C(=O)c1cccc(Cl)c1)N1CCCCC1 (centres unmarked) [Compound 2ff, 2-Piperidino-3′-chloropropiophenone] | inactive in the 1-h test but showed weak stimulant activity in the 8-h protocol
Cc1ccc(C(=O)C(C)NC(C)(C)C)cc1Cl (centres unmarked) [Compound 2k, 2-(N-tert-Butylamino)-3′-chloro-4′-methylpropiophenone] | moderate activity in the 1-h test with increased activity in the time-course study
CC(C)CC(NC(C)(C)C)C(=O)c1cccc(Cl)c1 (centres unmarked) [Compound 2t, 2-(N-tert-Butylamino)-3′-chlorophenyl-4-methylpentanophenone] | weak stimulants in both tests

Same assay, conditions: Mus musculus, 8 h, read-out: Locomotor Activity 8-Hour ED50

Structure (SMILES) | ED50
Cc1ccc(C(=O)C(C)NC(C)(C)C)cc1Cl (centres unmarked) [Compound 2k, 2-(N-tert-Butylamino)-3′-chloro-4′-methylpropiophenone] | 60.8 mg/kg

Same assay, conditions: Mus musculus, read-out: Locomotor Activity 8-Hour % Peak Cocaine, percent of cocaine's maximal effect, 30 min period of maximum stimulation

Structure (SMILES) | Emax
CC(NC(C)(C)C)C(=O)c1ccc(Br)cc1 (centres unmarked) [Compound 2g, 2-(N-tert-Butylamino)-4′-bromopropiophenone] | 54%
CC(C(=O)c1cccc(Cl)c1)N1CCCCC1 (centres unmarked) [Compound 2ff, 2-Piperidino-3′-chloropropiophenone] | 45%
Cc1ccc(C(=O)C(C)NC(C)(C)C)cc1Cl (centres unmarked) [Compound 2k, 2-(N-tert-Butylamino)-3′-chloro-4′-methylpropiophenone] | 87%
CC(NC(C)(C)C)C(=O)c1ccc(Cl)c(Cl)c1 (centres unmarked) [Compound 2j, 2-(N-tert-Butylamino)-3′,4′-dichloropropiophenone] | 61%

Same assay, conditions: Mus musculus; dose to produce 50% of the compound's maximal effect; 8-h; read-out: Locomotor Activity 8-Hour ED50

Structure (SMILES) | ED50
CC(NC(C)(C)C)C(=O)c1ccc(Br)cc1 (centres unmarked) [Compound 2g, 2-(N-tert-Butylamino)-4′-bromopropiophenone] | 32 mg/kg
CC(C(=O)c1cccc(Cl)c1)N1CCCCC1 (centres unmarked) [Compound 2ff, 2-Piperidino-3′-chloropropiophenone] | 15 mg/kg
CC(NC(C)(C)C)C(=O)c1ccc(Cl)c(Cl)c1 (centres unmarked) [Compound 2j, 2-(N-tert-Butylamino)-3′,4′-dichloropropiophenone] | 39.1 mg/kg

Same assay, conditions: dose to produce 50% of the compound's maximal effect; 8-h

Structure (SMILES) | Locomotor Activity 8-Hour ED50
CC(C)CC(NC(C)(C)C)C(=O)c1cccc(Cl)c1 (centres unmarked) [Compound 2t, 2-(N-tert-Butylamino)-3′-chlorophenyl-4-methylpentanophenone] | 22.1 mg/kg

Same assay, conditions: duration of locomotor activity

Structure (SMILES) | Locomotor Activity 8-Hour Time, min Period, length
CC(NC(C)(C)C)C(=O)c1ccc(Br)cc1 (centres unmarked) [Compound 2g, 2-(N-tert-Butylamino)-4′-bromopropiophenone] | 160 min
CC(C(=O)c1cccc(Cl)c1)N1CCCCC1 (centres unmarked) [Compound 2ff, 2-Piperidino-3′-chloropropiophenone] | 470 min
Cc1ccc(C(=O)C(C)NC(C)(C)C)cc1Cl (centres unmarked) [Compound 2k, 2-(N-tert-Butylamino)-3′-chloro-4′-methylpropiophenone] | 60 min
CC(NC(C)(C)C)C(=O)c1ccc(Cl)c(Cl)c1 (centres unmarked) [Compound 2j, 2-(N-tert-Butylamino)-3′,4′-dichloropropiophenone] | 140 to 240 min
CC(C)CC(NC(C)(C)C)C(=O)c1cccc(Cl)c1 (centres unmarked) [Compound 2t, 2-(N-tert-Butylamino)-3′-chlorophenyl-4-methylpentanophenone] | 320 min

Same assay, conditions: mouse, in vivo

Structure (SMILES) | onset and duration of locomotor activity, in words
CC(C(=O)c1cccc(Cl)c1)N1CCCCC1 (centres unmarked) [Compound 2ff, 2-Piperidino-3′-chloropropiophenone] | very slow onset of stimulatory activity
CC(NC(C)(C)C)C(=O)c1ccc(Cl)c(Cl)c1 (centres unmarked) [Compound 2j, 2-(N-tert-Butylamino)-3′,4′-dichloropropiophenone] | very slow onset of stimulatory activity
CC(C)CC(NC(C)(C)C)C(=O)c1cccc(Cl)c1 (centres unmarked) [Compound 2t, 2-(N-tert-Butylamino)-3′-chlorophenyl-4-methylpentanophenone] | very slow onset of stimulatory activity

Same assay, conditions: percent of cocaine's maximal effect, 30 min period of maximum stimulation

Structure (SMILES) | Locomotor Activity 8-Hour % Peak Cocaine
CC(C)CC(NC(C)(C)C)C(=O)c1cccc(Cl)c1 (centres unmarked) [Compound 2t, 2-(N-tert-Butylamino)-3′-chlorophenyl-4-methylpentanophenone] | 35%

Same assay, conditions: time period of maximum effect

Structure (SMILES) | Locomotor Activity 8-Hour Time, min Period, max
CC(NC(C)(C)C)C(=O)c1ccc(Br)cc1 (centres unmarked) [Compound 2g, 2-(N-tert-Butylamino)-4′-bromopropiophenone] | 140 to 170 min
Cc1ccc(C(=O)C(C)NC(C)(C)C)cc1Cl (centres unmarked) [Compound 2k, 2-(N-tert-Butylamino)-3′-chloro-4′-methylpropiophenone] | 10 to 40 min
CC(C)CC(NC(C)(C)C)C(=O)c1cccc(Cl)c1 (centres unmarked) [Compound 2t, 2-(N-tert-Butylamino)-3′-chlorophenyl-4-methylpentanophenone] | 260 to 290 min

Each compound was assayed on mice (assay: locomotor activity, 1-h observation protocol). Conditions: Mus musculus, 0.5 h, read-out: Locomotor Activity 1-Hour % Peak Cocaine.
Format: in vivo

Structure (SMILES) | Emax
Cc1ccc(C(=O)C(C)NC(C)(C)C)cc1Cl (centres unmarked) [Compound 2k, 2-(N-tert-Butylamino)-3′-chloro-4′-methylpropiophenone] | 74%

Same assay, conditions: Mus musculus; dose to produce 50% of the compound's maximal effect; 1-h

Structure (SMILES) | ED50
Cc1ccc(C(=O)C(C)NC(C)(C)C)cc1Cl (centres unmarked) [Compound 2k, 2-(N-tert-Butylamino)-3′-chloro-4′-methylpropiophenone] | 31.9 mg/kg

Same assay, conditions: dose to produce 50% of the compound's maximal effect; 1-h

Structure (SMILES) | Locomotor Activity 1-Hour ED50
CC(NC(C)(C)C)C(=O)c1ccc(Br)cc1 (centres unmarked) [Compound 2g, 2-(N-tert-Butylamino)-4′-bromopropiophenone] | NE^f
CC(C(=O)c1cccc(Cl)c1)N1CCCCC1 (centres unmarked) [Compound 2ff, 2-Piperidino-3′-chloropropiophenone] | NE^f
CC(NC(C)(C)C)C(=O)c1ccc(Cl)c(Cl)c1 (centres unmarked) [Compound 2j, 2-(N-tert-Butylamino)-3′,4′-dichloropropiophenone] | NE^f
CC(C)CC(NC(C)(C)C)C(=O)c1cccc(Cl)c1 (centres unmarked) [Compound 2t, 2-(N-tert-Butylamino)-3′-chlorophenyl-4-methylpentanophenone] | 47.7 mg/kg

Same assay, conditions: maximal effect as percent of cocaine's maximal effect in the first 30 min

Structure (SMILES) | Locomotor Activity 1-Hour % Peak Cocaine
CC(C)CC(NC(C)(C)C)C(=O)c1cccc(Cl)c1 (centres unmarked) [Compound 2t, 2-(N-tert-Butylamino)-3′-chlorophenyl-4-methylpentanophenone] | 62%

What follows are compounds tested against T3, (h)SERT (Homo sapiens, UniProt P31645) (assay: not given). Conditions: mean ± standard error of three independent experiments; read-out: Binding, Ki SERT.
T3 construct: expressed in transfected cells; host or cells: HEK293
T3 sequence (P31645 whole entry): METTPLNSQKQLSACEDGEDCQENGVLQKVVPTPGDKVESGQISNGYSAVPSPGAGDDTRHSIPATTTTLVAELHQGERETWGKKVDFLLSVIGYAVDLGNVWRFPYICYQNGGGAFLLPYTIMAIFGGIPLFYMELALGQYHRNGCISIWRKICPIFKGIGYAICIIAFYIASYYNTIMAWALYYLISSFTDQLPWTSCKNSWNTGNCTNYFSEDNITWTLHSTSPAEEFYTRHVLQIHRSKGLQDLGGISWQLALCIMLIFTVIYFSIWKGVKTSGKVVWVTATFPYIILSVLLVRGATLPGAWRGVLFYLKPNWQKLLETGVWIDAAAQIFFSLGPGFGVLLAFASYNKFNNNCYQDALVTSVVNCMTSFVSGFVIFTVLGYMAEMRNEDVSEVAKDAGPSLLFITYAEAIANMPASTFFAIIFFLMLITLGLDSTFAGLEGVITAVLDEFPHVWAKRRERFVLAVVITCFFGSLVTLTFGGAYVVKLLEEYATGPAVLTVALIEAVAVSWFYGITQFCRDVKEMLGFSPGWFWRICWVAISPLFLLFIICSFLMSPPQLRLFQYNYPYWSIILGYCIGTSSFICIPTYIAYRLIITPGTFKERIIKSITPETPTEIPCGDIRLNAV

Structure (SMILES) | Ki
Cc1ccc(C(=O)C(C)NC(C)(C)C)cc1Cl (centres unmarked) [Compound 2k, 2-(N-tert-Butylamino)-3′-chloro-4′-methylpropiophenone] | 2.1 µM
CC(C)CC(NC(C)(C)C)C(=O)c1cccc(Cl)c1 (centres unmarked) [Compound 2t, 2-(N-tert-Butylamino)-3′-chlorophenyl-4-methylpentanophenone] | 6.2 µM

Same assay, conditions: read-out: Binding, Ki SERT

Structure (SMILES) | Ki
CC(NC(C)(C)C)C(=O)c1ccc(Br)cc1 (centres unmarked) [Compound 2g, 2-(N-tert-Butylamino)-4′-bromopropiophenone] | 4.17 µM
CC(C(=O)c1cccc(Cl)c1)N1CCCCC1 (centres unmarked) [Compound 2ff, 2-Piperidino-3′-chloropropiophenone] | 5.48 µM
CC(NC(C)(C)C)C(=O)c1ccc(Cl)c(Cl)c1 (centres unmarked) [Compound 2j, 2-(N-tert-Butylamino)-3′,4′-dichloropropiophenone] | 1.48 µM

These compounds were tested against T3, (h)SERT (assay: block of [3H]serotonin reuptake in HEK-(h)SERT cells). Conditions: [3H]5HT; read-out: IC50 for 5HT uptake inhibition.
Format: cell-based

Structure (SMILES) | IC50
Cc1ccc(C(=O)C(C)NC(C)(C)C)cc1Cl (centres unmarked) [Compound 2k, 2-(N-tert-Butylamino)-3′-chloro-4′-methylpropiophenone] | 0.4 µM

Same assay, conditions: bound given in μM; read-out: Uptake, IC50 [3H]5-HT

Structure (SMILES) | IC50
CC(C)CC(NC(C)(C)C)C(=O)c1cccc(Cl)c1 (centres unmarked) [Compound 2t, 2-(N-tert-Butylamino)-3′-chlorophenyl-4-methylpentanophenone] | > 10 µM

Same assay, conditions: read-out: Uptake, IC50 [3H]5-HT

Structure (SMILES) | IC50
CC(NC(C)(C)C)C(=O)c1ccc(Br)cc1 (centres unmarked) [Compound 2g, 2-(N-tert-Butylamino)-4′-bromopropiophenone] | 2.52 µM
CC(C(=O)c1cccc(Cl)c1)N1CCCCC1 (centres unmarked) [Compound 2ff, 2-Piperidino-3′-chloropropiophenone] | 0.97 µM
